In article PMC11191095, “QSAR Reveals Decreased Lipophilicity of Polar Residues Determines the Selectivity of Antimicrobial Peptide Activity” (ACS Omega, 2024):
Where a SMILES comes first, the peptide text is derived from it.

Columns and labels:
Assay in all cases: microbe, parasite or virus in culture
[1] = test system: S. aureus (MSSA) ATCC 9144; type: cell-based, Staphylococcus aureus; conditions: S. aureus (MSSA) ATCC 9144 (S)
Method in brief: (§1)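 Peptides 128→2 μg/mL, 2-fold series; inoculum ~5 × 10^5 CFU/mL from overnight culture (OD600 0.01, mixed 1:1). MHB non-cation-adjusted for bacteria, RPMI 1640 + 2% glucose for fungi. 37 °C, 20 h, OD600. MIC50/MIC90 at 50%/90% inhibition; n ≥ 3.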

[2] = test system: S. aureus (MRSA) USA300; type: cell-based, Staphylococcus aureus; conditions: S. aureus (MRSA) USA300 (R)
Method in brief: as §1

[3] = test system: S. aureus (MRSA) 1199B; type: cell-based, Staphylococcus aureus; conditions: S. aureus (MRSA) 1199B (R)
Method in brief: as §1

[4] = test system: S. aureus (MRSA) NCTC 13616; type: cell-based, Staphylococcus aureus; conditions: S. aureus (MRSA) NCTC 13616 (R)
Method in brief: as §1

[5] = test system: C. krusei NCPF 3876; type: cell-based; conditions: C. krusei NCPF 3876
Method in brief: as §1

[6] = test system: C. parapsilosis NCPF 3209; type: cell-based; conditions: C. parapsilosis NCPF 3209
Method in brief: as §1

[7] = test system: C. glabrata NCPF 8018; type: cell-based; conditions: C. glabrata NCPF 8018
Method in brief: as §1

[8] = test system: C. tropicalis NCPF 8760; type: cell-based; conditions: C. tropicalis NCPF 8760
Method in brief: as §1

[9] = test system: C. albicans NCPF 3281; type: cell-based; conditions: C. albicans NCPF 3281
Method in brief: as §1

[10] = test system: A. baumannii AYE; type: cell-based, Acinetobacter baumannii; conditions: A. baumannii AYE (R)
Method in brief: as §1

[11] = test system: A. baumannii ATCC 17978; type: cell-based, Acinetobacter baumannii; conditions: A. baumannii ATCC 17978 (S)
Method in brief: as §1

[12] = test system: E. coli NCTC 12923; type: cell-based, Escherichia coli; conditions: E. coli NCTC 12923 (S)
Method in brief: as §1

[13] = test system: E. coli LEC001; type: cell-based, Escherichia coli; conditions: E. coli LEC001 (R)
Method in brief: as §1

[14] = test system: C. auris TDG 1912; type: cell-based, Candida auris; conditions: C. auris TDG 1912
Method in brief: as §1

[15] = test system: K. pneumoniae M6; type: cell-based, Klebsiella pneumoniae; conditions: K. pneumoniae M6 (S)
Method in brief: as §1

[16] = test system: K. pneumoniae NCTC 13368; type: cell-based, Klebsiella pneumoniae; conditions: K. pneumoniae NCTC 13368 (R)
Method in brief: as §1

[17] = MHB, 37 °C, 20 h, OD600, min. three biological repeats
[18] = 50% growth inhibition, RPMI 1640 + 2% glucose, 37 °C, 20 h
[19] = 90% growth inhibition, RPMI 1640 + 2% glucose, 37 °C, 20 h
[20] = MHB, ~5×10^5 CFU/mL, 37 °C, 20 h, OD600, min. three biological repeats
[21] = 50% growth inhibition, RPMI 1640 + 2% glucose, 37 °C, 20 h, OD600
[22] = 90% growth inhibition, RPMI 1640 + 2% glucose, 37 °C, 20 h, OD600

CC[C@H](C)[C@H](NC(=O)[C@H](CCCCN)NC(=O)[C@H](CC(C)C)NC(=O)[C@H](C)NC(=O)[C@H](C)NC(=O)[C@H](CCCCN)NC(=O)[C@H](CC(C)C)NC(=O)[C@H](C)NC(=O)[C@@H](N)CCCCN)C(=O)NCC(N)=O [CPF-P3-10a] (H-KALKAALKIG-NH2)
Modal MIC [1, 17]: > 128 µg/mL | Modal MIC ([1]; shown in µM): > 122 µM | Modal MIC [2, 17]: > 128 µg/mL | Modal MIC ([2]; shown in µM): > 122 µM | Modal MIC [3, 17]: > 128 µg/mL | Modal MIC ([3]; shown in µM): > 122 µM | Modal MIC [4, 17]: > 128 µg/mL | Modal MIC ([4]; shown in µM): > 122 µM | Modal MIC50 [5, 18]: > 128 µg/mL | Modal MIC90 [5, 19]: > 128 µg/mL | Modal MIC50 ([5]; shown in µM): > 122 µM | Modal MIC90 ([5]; shown in µM): > 122 µM | Modal MIC50 [6, 18]: > 128 µg/mL | Modal MIC90 [6, 19]: > 128 µg/mL | Modal MIC50 ([6]; shown in µM): > 122 µM | Modal MIC90 ([6]; shown in µM): > 122 µM | Modal MIC50 [7, 18]: > 128 µg/mL | Modal MIC90 [7, 19]: > 128 µg/mL | Modal MIC50 ([7]; shown in µM): > 122 µM | Modal MIC90 ([7]; shown in µM): > 122 µM | Modal MIC50 [8, 18]: > 128 µg/mL | Modal MIC90 [8, 19]: > 128 µg/mL | Modal MIC50 ([8]; shown in µM): > 122 µM | Modal MIC90 ([8]; shown in µM): > 122 µM | Modal MIC50 [9, 18]: > 128 µg/mL | Modal MIC90 [9, 19]: > 128 µg/mL | Modal MIC50 ([9]; shown in µM): > 122 µM | Modal MIC90 ([9]; shown in µM): > 122 µM | Modal MIC [10, 17]: > 128 µg/mL | Modal MIC ([10]; shown in µM): > 122 µM | Modal MIC [11, 17]: > 128 µg/mL | Modal MIC ([11]; shown in µM): > 122 µM | Modal MIC [12, 20]: > 128 µg/mL | Modal MIC ([12]; shown in µM): > 122 µM | Modal MIC [13, 17]: > 128 µg/mL | Modal MIC ([13]; shown in µM): > 122 µM | Modal MIC50 [14, 21]: > 128 µg/mL | Modal MIC90 [14, 22]: > 128 µg/mL | Modal MIC50 ([14]; shown in µM): > 122 µM | Modal MIC90 ([14]; shown in µM): > 122 µM | Modal MIC [15, 17]: > 128 µg/mL | Modal MIC ([15]; shown in µM): > 122 µM | Modal MIC [16, 17]: > 128 µg/mL | Modal MIC ([16]; shown in µM): > 122 µM

CC[C@H](C)[C@H](NC(=O)[C@H](CCCCN)NC(=O)[C@H](CC(C)C)NC(=O)[C@H](C)NC(=O)[C@H](C)NC(=O)[C@H](CCCCN)NC(=O)[C@H](CC(C)C)NC(=O)[C@H](C)NC(=O)[C@@H](N)CCCCN)C(=O)NCC(=O)N[C@@H](C)C(=O)N[C@@H](CC(N)=O)C(N)=O [CPF-P3-12a] (H-KALKAALKIGAN-NH2)
Modal MIC [1, 17]: > 128 µg/mL | Modal MIC ([1]; shown in µM): > 103.8 µM | Modal MIC [2, 17]: > 128 µg/mL | Modal MIC ([2]; shown in µM): > 103.8 µM | Modal MIC [3, 17]: > 128 µg/mL | Modal MIC ([3]; shown in µM): > 103.8 µM | Modal MIC [4, 17]: > 128 µg/mL | Modal MIC ([4]; shown in µM): > 103.8 µM | Modal MIC50 [5, 18]: > 128 µg/mL | Modal MIC90 [5, 19]: > 128 µg/mL | Modal MIC50 ([5]; shown in µM): > 103.8 µM | Modal MIC90 ([5]; shown in µM): > 103.8 µM | Modal MIC50 [6, 18]: > 128 µg/mL | Modal MIC90 [6, 19]: > 128 µg/mL | Modal MIC50 ([6]; shown in µM): > 103.8 µM | Modal MIC90 ([6]; shown in µM): > 103.8 µM | Modal MIC50 [7, 18]: > 128 µg/mL | Modal MIC90 [7, 19]: > 128 µg/mL | Modal MIC50 ([7]; shown in µM): > 103.8 µM | Modal MIC90 ([7]; shown in µM): > 103.8 µM | Modal MIC50 [8, 18]: > 128 µg/mL | Modal MIC90 [8, 19]: > 128 µg/mL | Modal MIC50 ([8]; shown in µM): > 103.8 µM | Modal MIC90 ([8]; shown in µM): > 103.8 µM | Modal MIC50 [9, 18]: > 128 µg/mL | Modal MIC90 [9, 19]: > 128 µg/mL | Modal MIC50 ([9]; shown in µM): > 103.8 µM | Modal MIC90 ([9]; shown in µM): > 103.8 µM | Modal MIC [10, 17]: > 128 µg/mL | Modal MIC ([10]; shown in µM): > 103.8 µM | Modal MIC [11, 17]: > 128 µg/mL | Modal MIC ([11]; shown in µM): > 103.8 µM | Modal MIC [12, 20]: > 128 µg/mL | Modal MIC ([12]; shown in µM): > 103.8 µM | Modal MIC [13, 17]: > 128 µg/mL | Modal MIC ([13]; shown in µM): > 103.8 µM | Modal MIC50 [14, 21]: > 128 µg/mL | Modal MIC90 [14, 22]: > 128 µg/mL | Modal MIC50 ([14]; shown in µM): > 103.8 µM | Modal MIC90 ([14]; shown in µM): > 103.8 µM | Modal MIC [15, 17]: > 128 µg/mL | Modal MIC ([15]; shown in µM): > 103.8 µM | Modal MIC [16, 17]: > 128 µg/mL | Modal MIC ([16]; shown in µM): > 103.8 µM
